Test results from patent US11684614B2, “Formulations of hydroxypyridonate actinide/lanthanide decorporation agents” (priority 2017, dated 2023).
Values joined by “and” are separate entries in the source; they are usually repeats but may differ in a detail not shown here. Identical values can stand only once.

Assay: Repeated-treatment efficacy for removing an intravenous dose of 238Pu (excretion, tissue retention, clinical observations), female and male arms
Assay type: in vivo, Swiss-Webster mice
Conditions: listed as 3,4,3-LI(1,2-HOPO); for % Recovered Dose - Feces per Day: male mice
Method: The objective of this study was to characterize the efficacy of 3,4,3-L1(1,2-HOPO) at enhancing elimination from an internal plutonium burden in female and male Swiss-Webster mice administered a soluble citrate complex of ^238Pu and treated multiple times, starting at 24 hours after the exposure. Efficacy was evaluated by comparing the tissue contents, urinary and fecal excretions of ^238Pu in treated animals versus untreated animals.
The medical countermeasure 3,4,3-L1(1,2-HOPO) was administered parenterally (ip) or orally (po) via consecutive injections or gavages (six daily or twelve twice daily) starting at 24 hours post contamination at the following four selected doses: 30 μmol/kg ip, 150 μmol/kg po, 300 μmol/kg po, and 600 μmol/kg po (equivalent to respective approximate human doses range of […], using the accepted conversion system of mouse doses into human equivalent doses—HED—based on body surface area). Oral doses also included the permeability enhancer selected during formulation development work.
• Challenge isotope: ^238Pu • Challenge dose: 25 nCi (i.e., approximately 0.8 μCi/kg) • Route of contamination: Intravenous (iv) tail-vein • Route of treatment: Intraperitoneal Injection (ip) or Oral (po) • Frequency of treatment: Multiple (once- or twice-daily for 6 days) doses, starting 24 hr postcontamination • Treatment dose calculation: Dose calculations (mg/kg or μmol/kg) for the decorporation agent were based on the individual body weight measured after contamination. • Study Duration: 11 days, in-life
c. […] Test article and control dose formulations were prepared within 1 day of dose administration, by weighing out the appropriate amount of test article, dispersing in vehicle. For ip solutions, the test article was used alone, while for oral suspensions, a mixture of test article and excipient (90:10, w:w) was used. The pH was adjusted to 7.0-7.4 for ip administration and 5.0-5.5 for oral administration with sterile NaOH. Dose formulations were prepared at room temperature and filter-sterilized. • Storage: 2-8° C.; refrigerated; protected from light. • Characterization: The concentration of each test article formulation was verified by high-performance liquid chromatography-mass spectrometry. • Test Article Handling: Test, reference, and control article formulations were handled with the use of eye protection, gloves, and a protective laboratory coat. • Correct Dose Assurance: The test article was weighed with calibrated balances. The administration of each dose formulation was properly documented, and the amount administered to each animal recorded.
e. Experimental Procedures (In-Life Evaluations and Euthanasia) • Contamination: Single administration by intravenous (iv) tail-vein injection (0.2 mL injection volume) under isoflurane anesthesia. Three standard 0.2 mL injections were performed into polyethylene bottles and pre-loaded with aliquots of concentrated nitric acid on each injection day. Six female and six male mice were culled for necropsy 1 hr post-contamination and were used as standards. A11 standards were processed and counted together with the final samples to allow verification of the contamination dose. • Dose Administration: Single administration by intraperitoneal injection (ip) or oral gavage (po) under isoflurane anesthesia. • Mortality/Morbidity: Assessed at least once daily. • Clinical Observations: Recorded once daily (4 hr post-dose on day of treatment), or more often as clinical signs warranted. […]

[1] = male arm table, Day 11 necropsy, animal group M

O=C(NCCCN(CCCCN(CCCNC(=O)c1cccc(=O)n1O)C(=O)c1cccc(=O)n1O)C(=O)c1cccc(=O)n1O)c1cccc(=O)n1O [3,4,3-L1(1,2-HOPO)]
% Recovered Dose Urine per Day, Day 5 [1]: 0.66% and 0.36% and 0.19% and 0.53% and 0.60% and 0.47% and 0.30% and 0.22%
% Recovered Dose Urine per Day, Day 6 [1]: 0.38% and 0.35% and 0.46% and 0.26% and 0.36% and 0.41% and 0.12% and 0.61%
% Recovered Dose Urine per Day, Day 7 [1]: 0.73% and 0.69% and 0.76% and 0.65% and 0.63% and 0.83% and 0.47% and 0.38%
% Recovered Dose Urine per Day, Day 8 [1]: 0.40% and 0.36% and 0.42% and 0.32% and 0.43% and 0.34% and 0.74% and 0.33%
% Recovered Dose Urine per Day, Day 9 [1]: 0.40% and 0.45% and 0.37% and 0.42% and 0.61% and 0.41% and 0.48%
% Recovered Dose Urine per Day, Day 10 [1]: 0.12% and 0.23% and 0.16% and 0.28% and 0.21% and 0.62% and 0.46% and 0.27%
% Recovered Dose Urine per Day, Day 11 [1]: 0.35% and 0.30% and 0.22% and 0.20% and 0.36% and 0.43% and 0.26% and 0.42%
% Recovered Dose - Feces per Day (group B, feces day 1, Day 7 necropsy): 4.37% and 8.32% and 7.75% and 4.30%
% Recovered Dose - Feces per Day (group B, feces day 2, Day 7 necropsy): 7.66% and 12.16% and 9.09% and 13.43%
% Recovered Dose - Feces per Day (group B, feces day 3, Day 7 necropsy): 2.15% and 3.85% and 3.59% and 3.55%
% Recovered Dose - Feces per Day (group B, feces day 4, Day 7 necropsy): 3.14% and 4.08% and 1.98% and 4.25%
% Recovered Dose - Feces per Day (group B, feces day 5, Day 7 necropsy): 1.34% and 2.97% and 0.93% and 2.49%
% Recovered Dose - Feces per Day (group B, feces day 6, Day 7 necropsy): 2.28% and 6.44% and 1.47% and 2.02%
% Recovered Dose - Feces per Day (group B, feces day 7, Day 7 necropsy): 1.46% and 2.68% and 1.21% and 2.10%
% Recovered Dose - Feces per Day (group C, feces day 1, Day 7 necropsy): 8.78% and 6.29% and 9.94% and 4.97%
% Recovered Dose - Feces per Day (group C, feces day 2, Day 7 necropsy): 15.31% and 12.37% and 22.78% and 14.58%
% Recovered Dose - Feces per Day (group C, feces day 3, Day 7 necropsy): 2.49% and 5.42% and 4.54% and 6.24%
% Recovered Dose - Feces per Day (group C, feces day 4, Day 7 necropsy): 3.01% and 3.04% and 5.87% and 3.77%
% Recovered Dose - Feces per Day (group C, feces day 5, Day 7 necropsy): 1.70% and 2.00% and 3.00% and 2.15%
% Recovered Dose - Feces per Day (group C, feces day 6, Day 7 necropsy): 1.91% and 2.24% and 2.37% and 2.32%
% Recovered Dose - Feces per Day (group C, feces day 7, Day 7 necropsy): 1.21% and 1.32% and 1.95% and 1.31%
% Recovered Dose - Feces per Day (group E, feces day 1, Day 7 necropsy): 6.19% and 11.96% and 7.28% and 11.97%
% Recovered Dose - Feces per Day (group E, feces day 2, Day 7 necropsy): 19.35% and 15.22% and 16.75% and 13.98%
% Recovered Dose - Feces per Day (group E, feces day 3, Day 7 necropsy): 3.91% and 2.72% and 3.36% and 3.87%
% Recovered Dose - Feces per Day (group E, feces day 4, Day 7 necropsy): 5.36% and 3.66% and 5.40% and 5.25%
% Recovered Dose - Feces per Day (group E, feces day 5, Day 7 necropsy): 1.97% and 1.84% and 1.67% and 1.79%
% Recovered Dose - Feces per Day (group E, feces day 6, Day 7 necropsy): 2.01% and 2.66% and 2.92% and 1.87%
% Recovered Dose - Feces per Day (group E, feces day 7, Day 7 necropsy): 2.11% and 1.97% and 2.22% and 1.18%
% Recovered Dose - Feces per Day (group F, feces day 1, Day 7 necropsy): 6.91% and 7.78% and 14.62% and 9.13%
% Recovered Dose - Feces per Day (group F, feces day 2, Day 7 necropsy): 14.25% and 13.00% and 16.24% and 15.40%
% Recovered Dose - Feces per Day (group F, feces day 3, Day 7 necropsy): 13.31% and 3.36% and 3.68% and 5.91%
% Recovered Dose - Feces per Day (group F, feces day 4, Day 7 necropsy): 4.17% and 4.09% and 3.98% and 3.52%
% Recovered Dose - Feces per Day (group F, feces day 5, Day 7 necropsy): 1.77% and 2.34% and 1.75% and 1.78%
% Recovered Dose - Feces per Day (group F, feces day 6, Day 7 necropsy): 1.60% and 2.84% and 1.72% and 1.54%
% Recovered Dose - Feces per Day (group F, feces day 7, Day 7 necropsy): 0.74% and 2.65% and 2.45% and 1.59%
